From patent EP2520566A1, “New Pharmaceutical Compounds” (Orion Corporation, priority 2011, dated 2012)

Target: TRPA1 (Homo sapiens, UniProt O75762)
Assay: Determination of TRPA1 activity in vitro (TRPA1 antagonism in vitro), procedure of Wei et al., Anesthesiology 111 (2009) 147-154
Type: cell-based
Description: EXPERIMENT 1: Determination of TRPA1 activity in vitro
The illustrative examples of the present invention were screened for TRPA1 activity according to a procedure described in Wei et al., Anesthesiology 111 (2009) 147-154. Table 1. TRPA1 antagonism in vitro.

TRPA1, sequence (O75762 whole entry): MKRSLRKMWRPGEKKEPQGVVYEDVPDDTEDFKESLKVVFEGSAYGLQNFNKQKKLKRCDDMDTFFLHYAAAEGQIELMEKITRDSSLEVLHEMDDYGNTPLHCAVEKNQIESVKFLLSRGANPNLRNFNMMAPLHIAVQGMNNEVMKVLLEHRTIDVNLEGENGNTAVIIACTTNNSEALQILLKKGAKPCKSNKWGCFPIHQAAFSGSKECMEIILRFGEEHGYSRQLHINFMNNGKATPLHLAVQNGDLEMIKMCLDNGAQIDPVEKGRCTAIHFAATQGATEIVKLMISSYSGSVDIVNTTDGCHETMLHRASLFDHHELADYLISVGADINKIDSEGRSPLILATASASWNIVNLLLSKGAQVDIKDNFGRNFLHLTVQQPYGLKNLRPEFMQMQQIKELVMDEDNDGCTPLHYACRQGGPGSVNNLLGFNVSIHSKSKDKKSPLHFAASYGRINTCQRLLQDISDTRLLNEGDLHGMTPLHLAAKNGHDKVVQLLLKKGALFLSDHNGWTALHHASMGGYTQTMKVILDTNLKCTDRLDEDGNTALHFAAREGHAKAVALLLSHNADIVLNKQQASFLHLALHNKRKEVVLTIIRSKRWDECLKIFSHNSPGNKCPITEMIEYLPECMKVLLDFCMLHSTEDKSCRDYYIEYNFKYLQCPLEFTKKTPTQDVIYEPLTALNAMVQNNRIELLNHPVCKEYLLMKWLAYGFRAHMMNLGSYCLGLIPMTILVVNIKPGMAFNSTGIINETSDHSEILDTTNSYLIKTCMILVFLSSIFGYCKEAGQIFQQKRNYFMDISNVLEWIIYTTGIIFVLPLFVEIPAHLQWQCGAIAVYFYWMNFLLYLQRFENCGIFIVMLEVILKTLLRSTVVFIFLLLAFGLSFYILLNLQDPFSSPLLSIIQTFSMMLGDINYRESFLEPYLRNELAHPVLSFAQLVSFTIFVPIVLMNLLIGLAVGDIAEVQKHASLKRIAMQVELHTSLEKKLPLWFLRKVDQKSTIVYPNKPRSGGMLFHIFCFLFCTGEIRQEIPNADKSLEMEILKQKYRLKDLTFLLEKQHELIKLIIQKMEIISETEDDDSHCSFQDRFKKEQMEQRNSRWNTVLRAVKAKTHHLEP

With `CC(C)Nc1cc(CNC(=O)[C@@H]2C[C@@H](F)CN2S(=O)(=O)c2ccccc2)ccc1Cl` [Example 21, (2S,4R)-N-(4-chloro-3-(isopropylamino)benzyl)-4-fluoro-1-(phenylsulfonyl)pyrrolidine-2-carboxamide] the IC50 was 15.6 µM.
